Test results reported in paper PMC7901699, “Challenging inflammatory process at molecular, cellular and in vivo levels via some new pyrazolyl thiazolones” (Journal of Enzyme Inhibition and Medicinal Chemistry, 2021).
“Also recorded” adds a separate entry of the source. Where two headings read alike, the source gives them in different places.

Columns and labels:
rat stomach [1] = details: in vivo, po, 5 mg/kg
IL-1β = IL-1β protein expression by Western blotting; format: cell-based, human; details: 100 μM compound; PMA 24 h then LPS 72 h; normalised to GAPDH
Experimental: THP-1 monocytes were exposed to 100 μM of the test compounds, activated with 25 nM PMA for 24 h followed by 100 ng/ml LPS for 72 h. At the end of the incubation period, cells were harvested, proteins were extracted and SDS-PAGE electrophoresis, blotting, and antibody probing were conducted as described previously. Primary rabbit polyclonal antibodies to IL-1β, procaspase-3, and GAPDH were obtained from Abcam (Cambridge, UK). Clarity Western ECL substrate (BioRad, Hercules, CA, USA) was used to obtain a chemiluminescence signal captured by a Chemidoc imaging system (BioRad, Hercules, CA, USA). Band density was estimated using ImageJ software (National Institutes of Health, Bethesda, MD) and normalised to the GAPDH band density as a loading control.

[2] = tested on: PMA/LPS-stimulated THP-1 (M1 macrophages); test: Cytotoxicity assay on differentiated M1 macrophages (MTS); format: cell-based, human; details: PMA 24 h, LPS 24 h, then compound 24 h; up to 100 μM
Experimental: To confirm that the previous observations were a consequence of interference of the compounds with the differentiation process rather than a reduction in monocyte viability, THP-1 monocytes were incubated with different concentrations of the compound for 30 h. No difference in cell viability was detected. Moreover, the cytotoxic effects of the drugs on differentiated macrophages were evaluated. Following the incubation of THP-1 cells with 25 nM PMA for 24 h and 100 ng/ml LPS for 24 h, the differentiated macrophages were treated with different concentrations of the compounds for 24 h. Cell viability was assessed using MTS colorimetric cell viability kit (Abcam, Cambridge, UK).

15-LOX = target: T1, 15-LOX (Glycine max, UniProt P08170); test: In vitro 15-LOX inhibition assay (lipoxygenase inhibitor screening kit, Cayman); format: biochemical; details: mean of three determinations
T1 construct: purchased Cayman chemicals 760700
T1 sequence (P08170 1-839): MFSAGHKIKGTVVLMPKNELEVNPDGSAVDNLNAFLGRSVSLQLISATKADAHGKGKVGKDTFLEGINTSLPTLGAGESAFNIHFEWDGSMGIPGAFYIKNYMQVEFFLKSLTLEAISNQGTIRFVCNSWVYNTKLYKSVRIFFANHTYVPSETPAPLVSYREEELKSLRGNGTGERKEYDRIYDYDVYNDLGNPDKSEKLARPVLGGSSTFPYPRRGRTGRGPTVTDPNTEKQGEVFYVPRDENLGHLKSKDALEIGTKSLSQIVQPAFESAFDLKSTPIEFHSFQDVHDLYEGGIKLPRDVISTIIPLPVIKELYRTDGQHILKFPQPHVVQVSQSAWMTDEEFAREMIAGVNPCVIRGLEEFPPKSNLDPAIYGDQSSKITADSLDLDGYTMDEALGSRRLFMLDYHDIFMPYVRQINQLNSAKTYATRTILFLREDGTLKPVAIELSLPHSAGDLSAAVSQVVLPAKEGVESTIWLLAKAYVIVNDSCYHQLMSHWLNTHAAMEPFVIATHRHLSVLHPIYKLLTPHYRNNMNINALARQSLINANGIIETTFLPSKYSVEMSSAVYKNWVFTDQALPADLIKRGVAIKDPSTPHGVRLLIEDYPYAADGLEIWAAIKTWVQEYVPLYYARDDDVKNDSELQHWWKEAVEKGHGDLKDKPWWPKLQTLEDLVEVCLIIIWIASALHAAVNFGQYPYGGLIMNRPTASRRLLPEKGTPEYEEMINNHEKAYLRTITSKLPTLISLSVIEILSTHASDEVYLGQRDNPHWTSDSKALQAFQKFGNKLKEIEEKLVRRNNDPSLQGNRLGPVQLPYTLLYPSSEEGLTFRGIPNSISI
Experimental: (§1) Both assays were carried out in compliance with the manufacturer’s instructions and in accordance to prior studies[29]^,[33].
(§2) IC50 values (μM) and selectivity indices (SI) were calculated.

ovine COX-1 = target: T2, ovine COX-1 (Ovis aries, UniProt P05979); test: In vitro COX-1 inhibition assay (colorimetric COX inhibitor screening kit, Cayman); format: biochemical; details: mean of three determinations
T2 construct: purchased Cayman Chemicals Inc. 560131
T2 sequence (P05979 25-600): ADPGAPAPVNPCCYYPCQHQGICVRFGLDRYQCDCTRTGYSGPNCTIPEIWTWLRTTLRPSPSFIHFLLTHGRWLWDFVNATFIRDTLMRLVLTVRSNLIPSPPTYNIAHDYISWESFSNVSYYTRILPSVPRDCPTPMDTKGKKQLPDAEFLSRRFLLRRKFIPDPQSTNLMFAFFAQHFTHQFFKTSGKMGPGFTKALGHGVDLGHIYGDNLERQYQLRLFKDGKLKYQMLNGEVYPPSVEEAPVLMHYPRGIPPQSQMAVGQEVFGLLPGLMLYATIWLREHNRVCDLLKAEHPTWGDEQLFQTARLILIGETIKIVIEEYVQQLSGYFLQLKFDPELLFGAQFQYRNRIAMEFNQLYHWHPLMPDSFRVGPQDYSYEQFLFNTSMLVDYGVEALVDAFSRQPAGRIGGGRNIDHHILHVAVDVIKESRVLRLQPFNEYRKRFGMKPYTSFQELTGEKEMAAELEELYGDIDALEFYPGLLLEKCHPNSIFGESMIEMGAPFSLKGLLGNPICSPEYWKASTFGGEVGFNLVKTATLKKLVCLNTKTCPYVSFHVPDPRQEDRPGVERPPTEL
Experimental: as §1, §2

THP-1 cells [3] = test: Monocyte-to-macrophage differentiation assay, M1 polarisation (PMA then LPS); format: cell-based, human; details: for IC50: Homo sapiens, THP-1, 6 h pre-incubation, PMA 25 nM 24 h then LPS 100 ng/ml 72 h, MTS, read-out: IC50 inhibition of THP-1 monocyte differentiation into M1 macrophages
Experimental: (§3) Monocytes were cultured and differentiated as described previously. THP-1 cells (human acute monocytic leukaemia lineage, American Type Culture Collection, Manassas, VA) were seeded at a density of 20 × 10^5 cells/ml. A set of cells were exposed to 25 nM of phorbol myristate-acetate (PMA, Calbiochem, Darmstadt, Germany) for 24 h to drive differentiation. Another set was similarly treated with PMA followed by 100 ng/ml of lipopolysaccharide (LPS, invivogen, San Diego, CA, USA) for 72 h. After incubation, the supernatant was aspirated and the density of the adherent cells was estimated using MTS colorimetric cell viability kit (Abcam, Cambridge, UK). The inhibitory actions of different compounds on the differentiation process were evaluated by pre-incubation with different concentrations of each compound for 6 h. Cell viability after treatment was normalised to the reading after PMA exposure following a 6-h incubation with DMSO. All experiments were conducted in triplicates. A positive control for the effect of COX1/COX2 inhibition on monocyte-to-macrophage differentiation was obtained by treatment with diclofenac. IC50 values for each compound were determined by non-linear regression as the best fit values of the log [inhibitor] vs. response curve using GraphPad Prism software.

human recombinant COX-2 = target: T3, human recombinant COX-2 (Homo sapiens, UniProt P35354); test: In vitro COX-2 inhibition assay (colorimetric COX inhibitor screening kit, Cayman); format: biochemical; details: for SI (COX-1/ COX-2): IC50 (COX-1)/IC50 (COX-2); for IC50: mean of three determinations
T3 construct: purchased Cayman Chemicals Inc. 560131
T3 sequence (P35354 18-604): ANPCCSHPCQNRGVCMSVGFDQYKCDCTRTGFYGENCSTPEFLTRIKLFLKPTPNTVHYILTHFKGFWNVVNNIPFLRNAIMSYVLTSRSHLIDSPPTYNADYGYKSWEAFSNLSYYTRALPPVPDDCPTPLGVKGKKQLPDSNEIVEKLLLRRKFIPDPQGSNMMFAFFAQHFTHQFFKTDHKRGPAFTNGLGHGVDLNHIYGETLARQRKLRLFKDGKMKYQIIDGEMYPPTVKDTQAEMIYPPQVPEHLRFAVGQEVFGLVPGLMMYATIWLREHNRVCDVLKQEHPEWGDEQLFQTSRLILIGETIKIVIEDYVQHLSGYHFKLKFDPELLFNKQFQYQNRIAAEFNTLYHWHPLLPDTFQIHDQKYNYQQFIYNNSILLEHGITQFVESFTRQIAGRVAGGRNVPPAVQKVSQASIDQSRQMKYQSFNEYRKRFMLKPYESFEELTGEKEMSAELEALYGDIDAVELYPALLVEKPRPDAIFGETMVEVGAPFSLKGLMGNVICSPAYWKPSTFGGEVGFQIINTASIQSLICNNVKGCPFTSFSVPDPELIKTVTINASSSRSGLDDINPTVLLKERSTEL
Experimental: as §1, §2

rat stomach [4] = test: Gastric ulcerogenic activity and histopathological examination; details: stomach removed on 8th day of administration, 5 mg/kg oral
[5] = tested on: cotton pellet-induced granuloma; test: Cotton pellet-induced granuloma assay (chronic inflammation model); details: oral 5 mg/kg daily; pellets excised on 8th day; vs diclofenac sodium and celecoxib; 5 mg/kg
THP-1 cells [6] = test: Monocyte-to-macrophage differentiation assay, resting M0 macrophages (PMA only); format: cell-based, human; details: data not shown
Experimental: as §3

| Compound | Gross observation of isolated rat stomachs (rat stomach [1]) | Histopathological examination of stomach gastric layers (rat stomach [1]) | IL-1β expression in PMA/LPS-challenged THP-1 (IL-1β) | M1 macrophage cell viability [2] | IC50 (15-LOX) [µM] | IC50 (ovine COX-1) [µM] | IC50 (THP-1 cells [3]) [µM] | Inhibition of THP-1 differentiation into M1 macrophages (in words) (THP-1 cells [3]; PMA then LPS, diclofenac as reference) | SI (COX-1/ COX-2) (human recombinant COX-2) | IC50 (human recombinant COX-2) [µM] | Gross observation of isolated rat stomachs (rat stomach [4]) | Histopathological examination of stomach gastric layers (rat stomach [4]; H&E, 5 mg/kg) | Inhibition of cotton pellet granuloma weight (in words) [5] | IC50 for M0 macrophage differentiation (in words) (THP-1 cells [6]) |
| --- | --- | --- | --- | --- | --- | --- | --- | --- | --- | --- | --- | --- | --- | --- |
| Cc1ccc(-c2cc(C(F)(F)F)nn2-c2ccc(S(N)(=O)=O)cc2)cc1 [Celecoxib] | normal stomach texture | no ulceration with normal gastro-esophageal junction |  |  |  |  |  |  |  |  |  |  |  |  |
| O=C1N=C(N2CCOCC2)S/C1=C\c1cn(-c2ccccc2)nc1-c1ccccc1 [Compound 4, (Z)-5-((1,3-diphenyl-1H-pyrazol-4-yl)methylene)-2-morpholinothiazol-4(5H)-one] |  |  | attenuating IL-1β production | tended to slightly decrease | 4.63 | 11.3 | 11.3 | potent inhibitory effects on monocyte-to-macrophage differentiation; also recorded: higher potency compared to diclofenac | 80 | 0.14 | variable levels of hyperaemia without gross ulceration | esophago-gastric inflammation; also recorded: gastro-esophageal inflammatory infiltrates |  |  |
| COc1ccc(-c2nn(-c3ccccc3)cc2/C=C2\SC(N3CCOCC3)=NC2=O)cc1 [Compound 8, (Z)-5-((3-(4-methoxyphenyl)-1-phenyl-1H-pyrazol-4-yl)methylene)-2-morpholinothiazol-4(5H)-one] |  |  | attenuating IL-1β production |  | 4.64 | 12.4 | 347 |  | 113 | 0.11 |  |  | superior anti-inflammatory activity, when compared to diclofenac and celecoxib; also recorded: increased inhibition of granuloma weight in comparison to both celecoxib and diclofenac |  |
| O=C(O)Cc1ccccc1Nc1c(Cl)cccc1Cl [Diclofenac Na, Diclofenac sodium, reference compound] |  |  |  |  |  |  | 101 |  |  |  | normal stomach texture |  |  | comparable IC50 to that observed for the M1 macrophage differentiation |
